# How the values were obtained:
# [1] = test system: subcutaneous CT26 tumors; assay type: in vivo, BALB/c mice; settings: injection of the agent instead of TNF-α
# Procedure: All animal experiments were overseen and approved by the Animal Welfare Committee of Johns Hopkins University, and were in compliance with the University standards. For the subcutaneous tumor model, female, six to eight week-old BALB/c mice (Harlan Breeders) were used. Five million CT26 cells were injected subcutaneously into the right flank of each mouse and allowed to grow for ˜10 days before randomization, group assignment, and treatment. C. novyi-NT spores were administered by a bolus tail vein injection of 300 million spores suspended in 0.2 mL of phosphate buffered saline, pH 7.5 (PBS). Cytotoxic anticancer agents were administered 16 hours later via the same route. TNF-α was reconstituted freshly before administration in doubly-distilled H2O at 100 ng/mL and diluted into 0.1% (w/v) BSA in PBS at a final concentration of 10 ng/mL. Cytotoxic agents were injected within a few minutes thereafter. Tumor volume was calculated as […]. For the orthotopic brain tumor model, female C57BL6 mice, 5-6 weeks of age, were purchased from the NCI-Frederick. […] Animals were monitored for potential side effects following drug administration. […]
# [2] = multiple injections (3 infusions/week) of a dose comparable to the highest mouse dose; cited from earlier work
# [3] = test system: CT26 tumors; experiment: Treatment of fully developed subcutaneous CT26 tumors (tumor volume, survival); assay type: in vivo, BALB/c mice; settings: TNF-α 25 ng/kg combined with Doxil or ^131I-labeled IgG
# Procedure: For the subcutaneous tumor model, female, six to eight week-old BALB/c mice (Harlan Breeders) were used. Five million CT26 cells were injected subcutaneously into the right flank of each mouse and allowed to grow for ˜10 days before randomization, group assignment, and treatment. C. novyi-NT spores were administered by a bolus tail vein injection of 300 million spores suspended in 0.2 mL of phosphate buffered saline, pH 7.5 (PBS). Cytotoxic anticancer agents were administered 16 hours later via the same route. TNF-α was reconstituted freshly before administration in doubly-distilled H2O at 100 ng/mL and diluted into 0.1% (w/v) BSA in PBS at a final concentration of 10 ng/mL. Cytotoxic agents were injected within a few minutes thereafter. Tumor volume was calculated as length×width×0.5.
Molecule,induction of E^2PR by microtubule-interacting agent [1],tolerability in humans [2],cures and survival at lower dose of TNF-α [3]
"COc1ccc(/C=C\c2cc(OC)c(OC)c(OC)c2)cc1OP(=O)(O)O [Combretastatin A4P, combretastatin A4 phosphate]","resulted in E^2PR, though not as impressively as TNF-α",–,–
CCC1=C[C@@H]2CN(C1)Cc1c([nH]c3ccccc13)[C@@](C(=O)OC)(c1cc3c(cc1OC)N(C)[C@H]1[C@@](O)(C(=O)OC)[C@H](OC(C)=O)[C@]4(CC)C=CCN5CC[C@]31[C@@H]54)C2 [vinorelbine],"resulted in E^2PR, though not as impressively as TNF-α",–,–
TNF-α,–,tolerate,"none of the treated animals were cured, although prolonged survival was observed"

# Reference: US20130323167A1, “DETECTING AND TREATING SOLID TUMORS THROUGH SELECTIVE DISRUPTION OF TUMOR VASCULATURE” (THE JOHNS HOPKINS UNIVERSITY, priority 2010, published 2013)
